Data: ChEMBL document CHEMBL4483862, “Open-source discovery of chemical leads for next-generation chemoprotective antimalarials” (2018)

System: Plasmodium berghei
Test: Luciferase/luciferin-expressing antifolate-resistant parasites were used to infect a culture of HepG2 cells that were pre-incubated with compounds. Infected hepatocytes emit light due to the luciferase reaction. Assay results are presented as the percent inhibition of light emission compared to control. […]
Type: functional
Conditions: sporozoite; for IC90: read-out: LUCIFERASE INFECTION ASSAY - IC90
[1] = read-out: LUCIFERASE INFECTION ASSAY - IC50

| Structure (SMILES) | IC90 [µM] | IC50 [1] [µM] | also measured |
| --- | --- | --- | --- |
| CCOc1ccc(C=C(c2nc3ccccc3s2)c2nc3ccccc3s2)cc1OC | 4.51 |  | IC50 (HEPG2TOX_HILL_SLOPE 4.58, HEPG2TOX_R_SQUARED 0.874, PBLUC_HILL_SLOPE 9.07, PBLUC_R_SQUARED 0.629, read-out: LUCIFERASE INFECTION ASSAY - IC50): 3.54 µM |
| OC1CCC(Nc2nn3cc(-c4ccccc4)nc3s2)CC1 (stereo not given) | 0.247 |  | IC50 (FFLUC_HILL_SLOPE 1.59, FFLUC_R_SQUARED 0.907, PBLUC_HILL_SLOPE 0.891, PBLUC_R_SQUARED 0.938, read-out: LUCIFERASE INFECTION ASSAY - IC50): 0.0209 µM |
| CCc1c(C(=O)NCC2CCS(=O)(=O)C2)cnn1-c1ccc(C)cc1 (stereo not given) | > 10 |  | IC50 (PBLUC_HILL_SLOPE 12.8, PBLUC_R_SQUARED 0.197, read-out: LUCIFERASE INFECTION ASSAY - IC50): > 10 µM |
| CC(=O)Nc1ccc(S(=O)(=O)NCCC(=O)OCc2ccccc2F)cc1 | > 10 | > 10 |  |
| CC(NC(=O)c1ccc(S(=O)(=O)C(F)F)cc1)C12CC3CC(CC(C3)C1)C2 (stereo not given) | > 10 | > 10 |  |
| CCC(C)(C)NS(=O)(=O)c1ccc(C(C)(C)C)cc1 | > 10 |  | IC50 (PBLUC_HILL_SLOPE 1.46, PBLUC_R_SQUARED 0.189, read-out: LUCIFERASE INFECTION ASSAY - IC50): > 10 µM |
| Clc1cccc(Cl)c1/C=C/c1nc2ccccc2n1Cc1ccccc1 | > 8.7 |  | IC50 (HEPG2TOX_HILL_SLOPE 4.4, HEPG2TOX_R_SQUARED 0.96, PBLUC_HILL_SLOPE 4.2, PBLUC_R_SQUARED 0.29, read-out: LUCIFERASE INFECTION ASSAY - IC50): 5.61 µM |
| O=C(NC1CC1)c1ccc(-c2cnc3c(Nc4cccc(OC(F)(F)C(F)F)c4)nccn23)cc1 | 2.49 |  | IC50 (HEPG2TOX_HILL_SLOPE 8.49, HEPG2TOX_R_SQUARED 0.235, PBLUC_HILL_SLOPE 3.35, PBLUC_R_SQUARED 0.643, read-out: LUCIFERASE INFECTION ASSAY - IC50): 1.29 µM |
| Cc1cc2nc(Nc3cccc(Cl)c3)c3ccccc3n2n1 | > 10 |  | IC50 (HEPG2TOX_HILL_SLOPE 10.5, HEPG2TOX_R_SQUARED 0.708, PBLUC_HILL_SLOPE 3.62, PBLUC_R_SQUARED 0.793, read-out: LUCIFERASE INFECTION ASSAY - IC50): 7.73 µM |
| CC(C)(C)c1ccc(CC(=O)N2CCC2(C)C(=O)Nc2cnc3ccccc3c2)cc1 (stereo not given) | 3.72 |  | IC50 (HEPG2TOX_HILL_SLOPE 0.158, HEPG2TOX_R_SQUARED 0.645, PBLUC_HILL_SLOPE 10.5, PBLUC_R_SQUARED 0.686, read-out: LUCIFERASE INFECTION ASSAY - IC50): 3.02 µM |
| O=C(Nc1nc2ccccc2[nH]1)c1ccccn1 | > 10 |  | IC50 (FFLUC_HILL_SLOPE 12.7, FFLUC_R_SQUARED 0.6, read-out: LUCIFERASE INFECTION ASSAY - IC50): > 10 µM |
| Cc1ccc2c(c1)NC(C)c1ccccc1O2 (stereo not given) | > 10 |  | IC50 (FFLUC_HILL_SLOPE 2.08, FFLUC_R_SQUARED 0.224, HEPG2TOX_HILL_SLOPE 6.95, HEPG2TOX_R_SQUARED 0.413, PBLUC_HILL_SLOPE 13.7, PBLUC_R_SQUARED 0.727, read-out: LUCIFERASE INFECTION ASSAY - IC50): 8.91 µM |
| Cn1c(-c2cccc(C(F)(F)F)c2)cc2c(Nc3cccnc3)nccc21 | > 10 |  | IC50 (FFLUC_HILL_SLOPE 13.4, FFLUC_R_SQUARED 0.159, PBLUC_HILL_SLOPE 11.7, PBLUC_R_SQUARED 0.342, read-out: LUCIFERASE INFECTION ASSAY - IC50): 9.06 µM |
| CC(C)(C)c1ccc(C(=O)NCc2ccco2)cc1 | 10.4 |  | IC50 (PBLUC_HILL_SLOPE 5.38, PBLUC_R_SQUARED 0.421, read-out: LUCIFERASE INFECTION ASSAY - IC50): 6.91 µM |
| CCN(CC)CCn1c(NC(=O)c2cc3c(C)nn(-c4ccc(Cl)cc4)c3s2)nc2ccccc21 | > 10 | > 10 |  |
| CCOc1cccc(-c2cn3c(-c4cccc(O)c4)cnc3cn2)c1 | 9.74 |  | IC50 (HEPG2TOX_HILL_SLOPE 1.42, HEPG2TOX_R_SQUARED 0.867, PBLUC_HILL_SLOPE 1.9, PBLUC_R_SQUARED 0.651, read-out: LUCIFERASE INFECTION ASSAY - IC50): 3.05 µM |
| COc1ccc(C(=O)c2sc(Nc3ccccc3C)c(C(=O)Nc3ccccc3C)c2N)cc1 | > 10 | 5.95 |  |
| COCCN(Cc1nnc(-c2cccs2)o1)C(=O)c1cc(C2CC2)nc2c1cnn2C(C)C | > 10 | > 10 |  |
| CCCCOc1ccc(/C=N/Nc2ccc([N+](=O)[O-])cc2)cc1 | > 10 | > 10 |  |
| Cc1ccc(S(=O)(=O)CCN2C(=O)CSC2=O)cc1 | > 11 | > 11 |  |

| Structure (SMILES) | IC90 [µM] | IC50 [1] [µM] | also measured |
| --- | --- | --- | --- |
| CCOC(=O)/C=C/C(=O)OCC(=O)c1ccc(C2CCCCC2)cc1 | > 10 |  | IC50 (HEPG2TOX_HILL_SLOPE 7.18, HEPG2TOX_R_SQUARED 0.791, read-out: LUCIFERASE INFECTION ASSAY - IC50): > 10 µM |
| CC(=O)c1ccc(NC(=O)N2[C@@H]3CC[C@@H](C3)[C@H]2c2nc3cccc(OCc4ccc(F)cc4)c3[nH]2)cc1 | > 10 |  | IC50 (FFLUC_HILL_SLOPE 7.32, FFLUC_R_SQUARED 0.306, PBLUC_HILL_SLOPE 12.2, PBLUC_R_SQUARED 0.357, read-out: LUCIFERASE INFECTION ASSAY - IC50): 9.72 µM |
| COc1cc(OC)cc(C(NS(=O)(=O)c2cc(C(F)(F)F)ccc2Cl)c2nccn2C)c1 (stereo not given) | > 10 |  | IC50 (PBLUC_HILL_SLOPE 9.29, PBLUC_R_SQUARED 0.399, read-out: LUCIFERASE INFECTION ASSAY - IC50): 8.07 µM |
| COC(=O)c1cc(OC)c(OC)cc1NS(=O)(=O)c1ccc(OC)cc1 | > 8.65 | 3.35 |  |
| O=C(c1ccc(N2CCCC2=O)cc1)N1CCN(C2CCS(=O)(=O)C2)CC1 (stereo not given) | > 10 | > 10 |  |
| O=c1ccc(-c2nc3c4c5c(sc4ncn3n2)CCCCC5)n[nH]1 | 8.47 |  | IC50 (HEPG2TOX_HILL_SLOPE 0.965, HEPG2TOX_R_SQUARED 0.912, PBLUC_HILL_SLOPE 1.19, PBLUC_R_SQUARED 0.691, read-out: LUCIFERASE INFECTION ASSAY - IC50): 1.33 µM |
| CCC(C)(C)c1ccc(Oc2ccc(NC(=O)CN3c4cccc5cccc(c45)S3(=O)=O)cc2)cc1 | > 10 | > 10 |  |
| CCCCNC(=O)c1c(NC(=O)C(C)Oc2ccccc2)nc2ccc(C)cn12 (stereo not given) | > 8.37 |  | IC50 (HEPG2TOX_HILL_SLOPE 6.71, HEPG2TOX_R_SQUARED 0.423, PBLUC_HILL_SLOPE 12, PBLUC_R_SQUARED 0.638, read-out: LUCIFERASE INFECTION ASSAY - IC50): 7.31 µM |
| N#C/C(=N\Nc1ccc(Cl)cc1Cl)C(=O)c1ccc(Cl)cc1 | 1.16 |  | IC50 (HEPG2TOX_HILL_SLOPE 1.3, HEPG2TOX_R_SQUARED 0.915, PBLUC_HILL_SLOPE 13.3, PBLUC_R_SQUARED 0.668, read-out: LUCIFERASE INFECTION ASSAY - IC50): 0.987 µM |
| CNC(=O)c1ccc(CN(Cc2ccco2)Cc2cc3ccc(C)c(C)c3nc2Cl)cc1 | 1.48 |  | IC50 (PBLUC_HILL_SLOPE 9.58, PBLUC_R_SQUARED 0.657, read-out: LUCIFERASE INFECTION ASSAY - IC50): 0.741 µM |
| CCCCCc1nnc(NC(=O)c2nccnc2N)s1 | 4.56 |  | IC50 (HEPG2TOX_HILL_SLOPE 7.97, HEPG2TOX_R_SQUARED 0.296, PBLUC_HILL_SLOPE 11.4, PBLUC_R_SQUARED 0.31, read-out: LUCIFERASE INFECTION ASSAY - IC50): 3.76 µM |
| CC1(C(=O)NC(=S)NNc2nc3ccccc3[nH]2)CC1(Cl)Cl (stereo not given) | > 10 |  | IC50 (HEPG2TOX_HILL_SLOPE 1.8, HEPG2TOX_R_SQUARED 0.951, read-out: LUCIFERASE INFECTION ASSAY - IC50): > 10 µM |
| CC1CCN(Cc2c(-c3ccccc3)n(C)c3ccccc23)CC1 | > 10 | > 10 |  |
| COc1cc(-c2cnc3cnc(-c4cccs4)cn23)cc(OC)c1OC | 2.1 |  | IC50 (HEPG2TOX_HILL_SLOPE 1.1, HEPG2TOX_R_SQUARED 0.918, PBLUC_HILL_SLOPE 2.83, PBLUC_R_SQUARED 0.515, read-out: LUCIFERASE INFECTION ASSAY - IC50): 0.964 µM |
| CC(C)(C)c1ccc(OCc2ccc(C(=O)N3CCN(CC(=O)NC4CC4)CC3)cc2)cc1 | > 10 |  | IC50 (HEPG2TOX_HILL_SLOPE 1.95, HEPG2TOX_R_SQUARED 0.886, PBLUC_HILL_SLOPE 11.8, PBLUC_R_SQUARED 0.642, read-out: LUCIFERASE INFECTION ASSAY - IC50): 8.43 µM |
| CCS(=O)(=O)N1CCC(C(=O)Nc2nnc(-c3ccc(Cl)cc3)o2)(c2ccccc2)CC1 | 1.21 |  | IC50 (HEPG2TOX_HILL_SLOPE 1.78, 1.25, HEPG2TOX_R_SQUARED 0.428, 0.956, PBLUC_HILL_SLOPE 18.9, PBLUC_R_SQUARED 0.689, read-out: LUCIFERASE INFECTION ASSAY - IC50): 1.07 µM |
| COc1cc2c(c(OC)c1OC)Cc1cc(OC)c(OC)c(OC)c1C2 | 7.66 |  | IC50 (PBLUC_HILL_SLOPE 3.89, PBLUC_R_SQUARED 0.32, read-out: LUCIFERASE INFECTION ASSAY - IC50): 4.36 µM |
| Cc1cn2c(CC(=O)Nc3ccc(C(F)(F)F)cc3)csc2n1 | 5.2 |  | IC50 (FFLUC_HILL_SLOPE 1.95, FFLUC_R_SQUARED 0.137, HEPG2TOX_HILL_SLOPE 2.23, HEPG2TOX_R_SQUARED 0.859, PBLUC_HILL_SLOPE 8.61, PBLUC_R_SQUARED 0.683, read-out: LUCIFERASE INFECTION ASSAY - IC50): 4.03 µM |
| COc1ccc(NC(=O)c2ccc3c(c2)C(=O)N(c2ccccc2Cl)C3=O)cn1 | > 10 | > 10 |  |
| COc1ccc(C(OC(=O)c2ccccc2)c2nccc3ccccc23)cc1 (stereo not given) | > 8.93 |  | IC50 (HEPG2TOX_HILL_SLOPE 1.92, HEPG2TOX_R_SQUARED 0.889, PBLUC_HILL_SLOPE 0.417, PBLUC_R_SQUARED 0.183, read-out: LUCIFERASE INFECTION ASSAY - IC50): 5.78 µM |
